Measurements taken from patent US9539260B2, “Dihydro-benzo-oxazine and dihydro-pyrido-oxazine derivatives” (Novartis AG, priority 2012, dated 2017).
pIC50: −log10 of the molar value.

How the values were obtained:
[1] = target: PI3K delta (Homo sapiens (Human), UniProt O00329); experiment: Enzymatic PI3K delta isoform inhibition (lipid kinase activity, Kinase-Glo luminescence); type: biochemical; conditions: Enzymatic assay
Outline: (§1)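 ATP-depletion format: 10 nM PI3K with 5 μg/mL phosphatidylinositol and 2 μM ATP, run to ~50% ATP consumption, then Kinase-Glo added and remaining ATP read by luminescence after 5 min. IC50 from 4-parameter logistic fit, typically over 8 concentrations 10–0.003 μM.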

[2] = target: PI3K alpha (Homo sapiens (Human), UniProt P42336); experiment: Enzymatic PI3K alpha isoform inhibition (lipid kinase activity, Kinase-Glo luminescence); type: biochemical; conditions: Enzymatic assay
PI3K alpha, sequence (P42336 other isoform, or with tags, fused parts or gaps): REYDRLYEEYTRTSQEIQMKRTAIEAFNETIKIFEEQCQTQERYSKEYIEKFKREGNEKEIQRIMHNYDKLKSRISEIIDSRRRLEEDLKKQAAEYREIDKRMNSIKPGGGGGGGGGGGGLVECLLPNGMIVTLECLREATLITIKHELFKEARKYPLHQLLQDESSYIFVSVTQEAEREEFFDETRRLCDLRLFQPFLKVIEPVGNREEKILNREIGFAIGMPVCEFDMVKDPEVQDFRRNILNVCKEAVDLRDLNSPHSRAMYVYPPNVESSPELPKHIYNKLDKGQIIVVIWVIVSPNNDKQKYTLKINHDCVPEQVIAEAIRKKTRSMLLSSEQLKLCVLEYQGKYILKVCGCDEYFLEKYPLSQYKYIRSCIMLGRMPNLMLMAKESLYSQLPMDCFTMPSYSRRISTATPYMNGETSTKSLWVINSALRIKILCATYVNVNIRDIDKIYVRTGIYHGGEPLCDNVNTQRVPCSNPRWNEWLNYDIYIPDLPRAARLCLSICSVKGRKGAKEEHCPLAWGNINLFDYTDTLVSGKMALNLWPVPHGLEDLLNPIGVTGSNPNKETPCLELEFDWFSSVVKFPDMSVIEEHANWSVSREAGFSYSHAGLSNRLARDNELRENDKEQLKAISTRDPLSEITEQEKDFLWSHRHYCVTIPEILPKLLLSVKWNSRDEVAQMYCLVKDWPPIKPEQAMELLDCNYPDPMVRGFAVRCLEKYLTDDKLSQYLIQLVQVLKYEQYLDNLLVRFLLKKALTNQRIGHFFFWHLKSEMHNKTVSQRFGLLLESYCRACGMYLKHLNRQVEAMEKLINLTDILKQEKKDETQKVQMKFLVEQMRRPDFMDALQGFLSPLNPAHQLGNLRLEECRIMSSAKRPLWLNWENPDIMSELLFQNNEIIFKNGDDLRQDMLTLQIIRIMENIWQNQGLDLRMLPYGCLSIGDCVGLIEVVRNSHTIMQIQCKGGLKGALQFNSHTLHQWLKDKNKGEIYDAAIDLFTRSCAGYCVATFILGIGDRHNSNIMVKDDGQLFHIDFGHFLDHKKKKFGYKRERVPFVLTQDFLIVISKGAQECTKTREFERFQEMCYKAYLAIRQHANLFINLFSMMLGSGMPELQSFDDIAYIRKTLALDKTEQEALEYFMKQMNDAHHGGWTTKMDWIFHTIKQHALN
Outline: as §1

PI3K delta, sequence (O00329 other isoform, or with tags, fused parts or gaps linker GGGGGG): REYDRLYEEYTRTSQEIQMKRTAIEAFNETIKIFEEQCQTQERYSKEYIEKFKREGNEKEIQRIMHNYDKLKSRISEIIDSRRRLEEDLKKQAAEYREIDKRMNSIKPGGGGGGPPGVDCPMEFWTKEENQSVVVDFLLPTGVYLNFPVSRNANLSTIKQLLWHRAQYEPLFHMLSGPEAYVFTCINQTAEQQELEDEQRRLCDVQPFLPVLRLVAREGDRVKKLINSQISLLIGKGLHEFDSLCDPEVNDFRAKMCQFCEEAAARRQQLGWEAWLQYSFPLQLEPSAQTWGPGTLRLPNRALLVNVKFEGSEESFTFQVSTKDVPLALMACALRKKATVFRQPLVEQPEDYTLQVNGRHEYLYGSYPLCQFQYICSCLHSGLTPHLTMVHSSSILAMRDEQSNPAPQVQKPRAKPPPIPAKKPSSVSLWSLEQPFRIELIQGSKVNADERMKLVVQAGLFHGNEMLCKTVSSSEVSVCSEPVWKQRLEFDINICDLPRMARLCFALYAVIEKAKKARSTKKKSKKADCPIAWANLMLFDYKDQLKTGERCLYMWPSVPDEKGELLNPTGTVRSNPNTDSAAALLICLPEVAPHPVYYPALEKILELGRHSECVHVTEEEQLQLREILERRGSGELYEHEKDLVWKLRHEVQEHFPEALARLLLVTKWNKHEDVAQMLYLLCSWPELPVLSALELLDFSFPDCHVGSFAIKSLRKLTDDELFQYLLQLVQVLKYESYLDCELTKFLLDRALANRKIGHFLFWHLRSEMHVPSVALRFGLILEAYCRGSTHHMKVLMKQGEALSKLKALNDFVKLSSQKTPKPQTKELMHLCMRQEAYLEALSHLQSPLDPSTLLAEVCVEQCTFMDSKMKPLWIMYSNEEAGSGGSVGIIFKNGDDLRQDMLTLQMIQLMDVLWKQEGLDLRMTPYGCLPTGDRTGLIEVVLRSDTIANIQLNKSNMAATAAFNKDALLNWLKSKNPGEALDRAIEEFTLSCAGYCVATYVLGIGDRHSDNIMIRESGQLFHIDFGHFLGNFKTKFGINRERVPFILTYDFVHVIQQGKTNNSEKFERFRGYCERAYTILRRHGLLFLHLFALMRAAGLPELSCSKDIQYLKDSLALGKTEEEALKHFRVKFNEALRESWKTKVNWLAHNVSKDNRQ

| SMILES | pIC50 [1] | pIC50 [2] |
| --- | --- | --- |
| COc1ncc(N2CCOc3cnc(O[C@H]4CCN(C(=O)c5cn6ccsc6n5)C4)cc32)cc1C(F)(F)F [Example G1, Imidazo[2,1-b]thiazol-6-yl-{(S)-3-[1-(6-methoxy-5-trifluoromethyl-pyridin-3-yl)-2,3-dihydro-1H-pyrido[3,4-b][1,4]oxazin-7-yloxy]-pyrrolidin-1-yl}-methanone] | 7.77 | 7.31 |
| CCC(=O)N1CC[C@H](Oc2ccc3c(c2)N(c2ccc(S(C)(=O)=O)nc2)CCO3)C1 [Example A8, 1-{(S)-3-[4-(6-Methanesulfonyl-pyridin-3-yl)-3,4-dihydro-2H-benzo[1,4]oxazin-6-yloxy]-pyrrolidin-1-yl}-propan-1-one] | 7.40 | 5.23 |
| COc1ncc(N2CCOc3ccc(O[C@H]4CCN(C(=O)C5CCS(=O)(=O)CC5)C4)cc32)cc1F [Example B11, (1,1-Dioxo-hexahydro-1lambda*6*-thiopyran-4-yl)-{(S)-3-[4-(5-fluoro-6-methoxy-pyridin-3-yl)-3,4-dihydro-2H-benzo[1,4]oxazin-6-yloxy]-pyrrolidin-1-yl}-methanone] | 7.85 | 6.08 |
| CC(C)S(=O)(=O)c1cncc(N2CCOc3ccc(O[C@H]4CCN(C(=O)C5CCS(=O)(=O)CC5)C4)cc32)c1 [Example B29, (1,1-Dioxo-hexahydro-1lambda*6*-thiopyran-4-yl)-((S)-3-{4-[5-(propane-2-sulfonyl)-pyridin-3-yl]-3,4-dihydro-2H-benzo[1,4]oxazin-6-yloxy}-pyrrolidin-1-yl)-methanone] | 7.39 | 6.25 |
| CS(=O)(=O)c1ncc(N2CCOc3ccc(O[C@H]4CCN(C(=O)C5CCOCC5)C4)cc32)cc1F [Example B86, {(S)-3-[4-(5-Fluoro-6-methanesulfonyl-pyridin-3-yl)-3,4-dihydro-2H-benzo[1,4]oxazin-6-yloxy]-pyrrolidin-1-yl}-(tetrahydro-pyran-4-yl)-methanone] | 7.21 | 5.18 |
| O=C(C1CCOCC1)N1CC[C@H](Oc2ccc3c(c2)N(c2cncc(Cl)c2)CCO3)C1 [Example A34, {(S)-3-[4-(5-Chloro-pyridin-3-yl)-3,4-dihydro-2H-benzo[1,4]oxazin-6-yloxy]-pyrrolidin-1-yl}-(tetrahydro-pyran-4-yl)-methanone] | 8.05 | 6.11 |
| Cc1cc(N2CCOc3ccc(O[C@H]4CCN(C(=O)c5cocn5)C4)cc32)cnc1S(C)(=O)=O [Example B24, {(S)-3-[4-(6-Methanesulfonyl-5-methyl-pyridin-3-yl)-3,4-dihydro-2H-benzo[1,4]oxazin-6-yloxy]-pyrrolidin-1-yl}-oxazol-4-yl-methanone] | 8.10 | 6.67 |
| COc1cc(N2CCOc3ccc(O[C@H]4CCN(C(=O)C5CCS(=O)(=O)C5)C4)cc32)cnc1OC (stereo partly drawn) [Example B41, {(S)-3-[4-(5,6-Dimethoxy-pyridin-3-yl)-3,4-dihydro-2H-benzo[1,4]oxazin-6-yloxy]-pyrrolidin-1-yl}-(1,1-dioxo-tetrahydro-1lambda*6*-thiophen-3-yl)-methanone] | 7.60 | 6.38 |
| COc1ncc(N2CCOc3ccc(O[C@H]4CCN(C(=O)C5CCOC5)C4)cc32)cc1C (stereo partly drawn) [Example B94, {(S)-3-[4-(6-Methoxy-5-methyl-pyridin-3-yl)-3,4-dihydro-2H-benzo[1,4]oxazin-6-yloxy]-pyrrolidin-1-yl}-(tetrahydro-furan-3-yl)-methanone] | 8.30 | 6.38 |
| COc1ncc(N2CCOc3ccc(O[C@H]4CCN(C(=O)c5ccc(=O)n(C)c5)C4)cc32)cc1C [Example B95, 5-{(S)-3-[4-(6-Methoxy-5-methyl-pyridin-3-yl)-3,4-dihydro-2H-benzo[1,4]oxazin-6-yloxy]-pyrrolidine-1-carbonyl}-1-methyl-1H-pyridin-2-one] | 8.05 | 6.36 |
| COc1ncc(N2CCOc3ccc(O[C@H]4CCN(C(=O)c5cnn(C)c5)C4)cc32)cc1C [Example B20, {(S)-3-[4-(6-Methoxy-5-methyl-pyridin-3-yl)-3,4-dihydro-2H-benzo[1,4]oxazin-6-yloxy]-pyrrolidin-1-yl}-(1-methyl-1H-pyrazol-4-yl)-methanone] | 7.33 | 6.47 |
| COc1ncc(N2CCOc3ccc(O[C@H]4CCN(C(=O)C5CCS(=O)(=O)CC5)C4)c(C)c32)cc1C(F)F [X, {(S)-3-[4-(5-Difluoromethyl-6-methoxy-pyridin-3-yl)-5-methyl-3,4-dihydro-2H-benzo[1,4]oxazin-6-yloxy]-pyrrolidin-1-yl}-(1,1-dioxo-hexahydro-1lambda*6*-thiopyran-4-yl)-methanone] | 7.21 | 5.45 |
| COc1ncc(N2CCOc3ccc(O[C@H]4CCN(C(=O)c5ccn(C)n5)C4)cc32)cc1C [Example B21, {(S)-3-[4-(6-Methoxy-5-methyl-pyridin-3-yl)-3,4-dihydro-2H-benzo[1,4]oxazin-6-yloxy]-pyrrolidin-1-yl}-(1-methyl-1H-pyrazol-3-yl)-methanone] | 7.89 | 6.18 |
| COc1ncc(N2CCOc3ccc(O[C@H]4CCN(C(=O)c5cc[nH]c(=O)c5)C4)cc32)cc1C [Example B91, 4-{(S)-3-[4-(6-Methoxy-5-methyl-pyridin-3-yl)-3,4-dihydro-2H-benzo[1,4]oxazin-6-yloxy]-pyrrolidine-1-carbonyl}-1H-pyridin-2-one] | 7.92 | 6.45 |
| Cc1cc(N2CCOc3ccc(O[C@H]4CCN(C(=O)C5CCOCC5)C4)cc32)cnc1OC(F)F [Example B72, {(S)-3-[4-(6-Difluoromethoxy-5-methyl-pyridin-3-yl)-3,4-dihydro-2H-benzo[1,4]oxazin-6-yloxy]-pyrrolidin-1-yl}-(tetrahydro-pyran-4-yl)-methanone] | 7.49 | 5.69 |
| COc1ncc(N2CCOc3ccc(O[C@H]4CCN(C(=O)C5CCOCC5)C4)cc32)cc1F [Example B18] | 7.92 | 6.14 |
| CCC(=O)N1CC[C@H](Oc2ccc3c(c2)N(c2cnc4ccccc4c2)CCO3)C1 [Example A36, 1-[(S)-3-(4-Quinolin-3-yl-3,4-dihydro-2H-benzo[1,4]oxazin-6-yloxy)-pyrrolidin-1-yl]-propan-1-one] | 7.11 | 5.90 |

The next lines start with the values.

| pIC50 [1] | pIC50 [2] | SMILES |
| --- | --- | --- |
| 7.02 | 5.26 | COc1ncc(N2c3cc(O[C@H]4CCN(C(=O)C5CCOCC5)C4)ccc3OCC2C)cc1C#N (stereo partly drawn) [Example C5, 2-Methoxy-5-{3-methyl-6-[(S)-1-(tetrahydro-pyran-4-carbonyl)-pyrrolidin-3-yloxy]-2,3-dihydro-benzo[1,4]oxazin-4-yl}-nicotinonitrile] |
| 7.89 | 6.43 | COc1ncc(N2CCOc3ccc(O[C@H]4CCN(C(=O)c5ccnn5C)C4)cc32)cc1C#N [Example C8, 2-Methoxy-5-{6-[(S)-1-(2-methyl-2H-pyrazole-3-carbonyl)-pyrrolidin-3-yloxy]-2,3-dihydro-enzo[1,4]oxazin-4-yl}-nicotinonitrile] |
| 8.22 | 6.08 | Cc1cc(N2CCOc3ccc(O[C@H]4CCN(C(=O)C5CCOCC5)C4)c(F)c32)cnc1S(C)(=O)=O [Example I3] |
| 5.15 | < 5.04 | COc1ncc(N2CCOc3ccc(O[C@@H]4CON(C(=O)C5CCOCC5)C4)cc32)cc1C#N [Example D24, 2-Methoxy-5-{6-[(S)-2-(tetrahydro-pyran-4-carbonyl)-isoxazolidin-4-yloxy]-2,3-dihydro-benzo[1,4]oxazin-4-yl}-nicotinonitrile] |
| 8.52 | 6.11 | Cc1cc(N2CCOc3cnc(O[C@H]4CCN(C(=O)C5CCOCC5)C4)cc32)cnc1S(C)(=O)=O [Example F6, {(S)-3-[1-(6-Methanesulfonyl-5-methyl-pyridin-3-yl)-2,3-dihydro-1H-pyrido[3,4-b][1,4]oxazin-7-yloxy]-pyrrolidin-1-yl}-(tetrahydro-pyran-4-yl)-methanone] |
| 7.89 | 6.56 | COc1ncc(N2CCOc3ccc(O[C@H]4CCN(C(=O)c5ccn(C)c(=O)c5)C4)cc32)cc1C#N [Example D19, 2-Methoxy-5-{6-[(S)-1-(1-methyl-2-oxo-1,2-dihydro-pyridine-4-carbonyl)-pyrrolidin-3-yloxy]-2,3-dihydro-benzo[1,4]oxazin-4-yl}-nicotinonitrile] |
| 6.74 | 5.37 | COc1ncc(N2c3cc(O[C@H]4CCN(C(=O)C5CCOCC5)C4)ccc3OCC2C)cc1C#N (stereo partly drawn) [Example C6, 2-Methoxy-5-{3-methyl-6-[(S)-1-(tetrahydro-pyran-4-carbonyl)-pyrrolidin-3-yloxy]-2,3-dihydro-benzo[1,4]oxazin-4-yl}-nicotinonitrile] |
| 7.62 | 6.15 | COc1ncc(N2CCOc3cnc(O[C@H]4CCN(C(=O)C5CCS(=O)(=O)CC5)C4)cc32)cc1C#N [Example F13, 5-{7-[(S)-1-(1,1-Dioxo-hexahydro-1lambda*6*-thiopyran-4-carbonyl)-pyrrolidin-3-yloxy]-2,3-dihydro-pyrido[3,4-b][1,4]oxazin-1-yl}-2-methoxy-nicotinonitrile] |
| 7.82 | 6.32 | COc1ncc(N2CCOc3ccc(O[C@H]4CCN(C(=O)c5cccnc5)C4)cc32)cc1C#N [Example C16, 2-Methoxy-5-{6-[(S)-1-(pyridine-3-carbonyl)-pyrrolidin-3-yloxy]-2,3-dihydro-benzo[1,4]oxazin-4-yl}-nicotinonitrile] |
| 7.24 | 6.15 | COc1ncc(N2CCOc3ccc(O[C@H]4CCN(C(=O)C(C)(C)O)C4)cc32)cc1C#N [Example D15, 5-{6-[(S)-1-(2-Hydroxy-2-methyl-propionyl)-pyrrolidin-3-yloxy]-2,3-dihydro-benzo[1,4]oxazin-4-yl}-2-methoxy-nicotinonitrile] |
| 7.55 | 5.52 | CCC(=O)N1CC[C@H](Oc2ccc3c(c2)N(c2ccc(OC)nc2)CCO3)C1 [Example C4, 1-{(S)-3-[4-(6-Methoxy-pyridin-3-yl)-3,4-dihydro-2H-benzo[1,4]oxazin-6-yloxy]-pyrrolidin-1-yl}-propan-1-one] |
